Data from patent US8729087B2, “Compositions and methods for inhibition of the JAK pathway” (Rigel Pharmaceuticals, Inc., priority 2006, dated 2014).
Where two headings read alike, the source gives them in different places.

Tests used:
[1] = test system: Ramos B-cell line stimulated with IL-4; test: Assay for Ramos B-Cell Line Stimulated with IL-4 (CD23 upregulation, FACS); type: cell-based, human; conditions: read-out: Example 2 (IC50, Ramos B-cell line stimulated with IL-4)
Source text: One means of assaying for such inhibition is detection of the effect of the 2,4-pyrimidinediamine compounds on the upregulation of downstream gene products. In the Ramos/IL4 assay, B-cells are stimulated with the cytokine Interleukin-4 (IL-4) leading to the activation of the JAK/Stat pathway through phosphorylation of the JAK family kinases, JAK1 and JAK3, which in turn phosphorylate and activate the transcription factor Stat-6. […] To study the effect of inhibitors (e.g., the 2,4-substituted pyrimindinediamine compounds described herein) on the JAK1 and JAK3 kinases, human Ramos B cells are stimulated with human IL-4. Twenty to 24 hours post stimulation, cells are stained for upregulation of CD23 and analyzed using flow cytometry (FACS). […] An exemplary assay of this type is described in greater detail in Example 2.
B-cells stimulated with cytokine Interleukin-4 (IL-4) activate the JAK/Stat pathway through phosphorylation of the JAK family kinases, JAK-1 and JAK-3, which in turn phosphorylate and activate the transcription factor Stat-6. […] To study the effect of inhibitors on the JAK family kinases, human Ramos B cells are stimulated with human IL-4.
The Ramos B-cell line was acquired from ATCC (ATCC Catalog No. CRL-1596). The cells were cultured in RPMI 1640 (Cellgro, MediaTech, Inc., Herndon, Va., Cat No. 10-040-CM) with 10% fetal bovine serum (FBS), heat inactivated (JRH Biosciences, Inc, Lenexa, Kans., Cat No. 12106-500M) according to ATCC propagation protocol. Cells were maintained at a density of 3.5×10^5. The day before the experiment, Ramos B-cells were diluted to 3.5×10^5 cells/mL to ensure that they were in a logarithmic growth phase.
Cells were spun down and suspended in RPMI with 5% serum. 5×10^4 cells were used per point in a 96-well tissue culture plate. Cells were pre-incubated with compound or DMSO (Sigma-Aldrich, St. Louis, Mo., Cat No. D2650) vehicle control for 1 hour in a 37° C. incubator.
Cells were then stimulated with IL-4 (Peprotech Inc., Rocky Hill, N.J., Cat No. 200-04) for a final concentration of 50 units/mL for 20-24 hours. Cells were then spun down and stained with anti-CD23-PE (BD Pharmingen, San Diego, Calif., Cat No. 555711) and analyzed by FACS. Detection was performed using a BD LSR I System Flow Cytometer, purchased from Becton Dickinson Biosciences of San Jose, Calif.

Primary human T-cells = test: Primary Human T-Cell Proliferation Assay Stimulated with IL-2 (CellTiter-Glo); type: cell-based; conditions: read-out: Example 3 (IC50, primary human T-cell proliferation stimulated with IL-2)
Source text: The activity of the active compounds of the invention may further be characterized by assaying the effect of the 2,4-pyrimidinediamine compounds described herein on the proliferative response of primary human T-cells. In this assay, primary human T-cells derived from peripheral blood and pre-activated through stimulation of the T-cell receptor and CD28, proliferate in culture in response to the cytokine Interleukin-2 (IL-2). This proliferative response is dependent on the activation of JAK1 and JAK3 tyrosine kinases, which phosphorylate and activate the transcription factor Stat-5. The primary human T-cells are incubated with the 2,4-pyrimidinediamine compounds in the presence of IL-2 for 72 hours and at the assay endpoint intracellular ATP concentrations are measured to assess cell viability. A reduction in cell proliferation compared to control conditions is indicative of inhibition of the JAK kinase pathway. An exemplary assay of this type is described in greater detail in Example 3.
Primary human T-cells derived from peripheral blood and pre-activated through stimulation of the T-cell receptor and CD28, proliferate in vitro in response to the cytokine Interleukin-2 (IL-2). This proliferative response is dependent on the activation of JAK-1 and JAK-3 tyrosine kinases, which phosphorylate and activate the transcription factor Stat-5.
Human primary T cells were prepared as follows. Whole blood was obtained from a healthy volunteer, mixed 1:1 with PBS, layered on to Ficoll Hypaque (Amersham Pharmacia Biotech, Piscataway, N.J., Catalog #17-1440-03) in 2:1 blood/PBS:ficoll ratio and centrifuged for 30 min at 4° C. at 1750 rpm. The lymphocytes at the serum: ficoll interface were recovered and washed twice with 5 volumes of PBS. The cells were resuspended in Yssel's medium (Gemini Bio-products, Woodland, Calif., Catalog #400-103) containing 40 U/mL recombinant IL2 (R and D Systems, Minneapolis, Minn., Catalog #202-IL (20 μg)) and seeded into a flask pre-coated with 1 μg/mL anti-CD3 (BD Pharmingen, San Diego, Calif., Catalog #555336) and […] (Immunotech, Beckman Coulter of Brea Calif., Catalog #IM1376). The primary T-cells were stimulated for 3-4 days, then transferred to a fresh flask and maintained in RPMI with 10% FBS and 40 U/mL IL-2.
Primary T-cells were washed twice with PBS to remove the IL-2 and resuspended in Yssel's medium at 2×10^6 cells/mL. 50 μL of cell suspension containing 80 U/mL IL-2 was added to each well of a flat bottom 96 well black plate. For the unstimulated control, IL-2 was omitted from the last column on the plate. Compounds were serially diluted in dimethyl sulfoxide (DMSO, 99.7% pure, cell culture tested, Sigma-Aldrich, St. Louis, Mo., Catalog No. D2650) from 5 mM in 3-fold dilutions, and then diluted 1:250 in Yssel's medium. 50 μL of 2× compound was added per well in duplicate and the cells were allowed to proliferate for 72 hours at 37° C.
Proliferation was measured using CellTiter-Glo® Luminescent Cell Viability Assay (Promega), which determines the number of viable cells in culture based on quantitation of the ATP present, as an indicator of metabolically active cells. The substrate was thawed and allowed to come to room temperature. After mixing the Cell Titer-Glo reagent and diluent together, 100 μL was added to each well. The plates were mixed on an orbital shaker for two minutes to induce lysis and incubated at room temperature for an additional ten minutes to allow the signal to equilibrate. Detection was performed using a Wallac Victor2 1420 multilabel counter purchased from Perkin Elmer, Shelton, Conn.

[2] = Homo sapiens, Ramos, IL-4 50 units/mL, 20-24 hours, anti-CD23-PE staining, FACS
[3] = Homo sapiens, T-cell, 72 h, IL-2, 72 hours, ATP quantitation (CellTiter-Glo)
[4] = IL-4 50 units/mL, 20-24 hours, anti-CD23-PE staining, FACS
[5] = IL-2, 72 hours, ATP quantitation (CellTiter-Glo)

SMILES	IC50 [1, 4]	IC50 (Primary human T-cells; [5])	other results
Cc1cnc(Nc2ccc(S(N)(=O)=O)cc2)nc1Nc1ccc2c(c1)C(NS(C)(=O)=O)CC2 (racemic) [VI-2, (+/−)-N2-(4-Aminosulfonylphenyl)-5-methyl-N4-[1-(methylsulfonyl)aminoindan-6-yl]-2,4-pyrimidinediamine]			IC50 [1, 2]: 0.279 µM; IC50 (Primary human T-cells; [3]): 1.02 µM
N#CCOc1ccc(Nc2nc(Nc3cccc(CS(N)(=O)=O)c3)ncc2F)cc1 [Compound I-1, N2-[3-(Aminosulfonylmethylene)phenyl]-5-fluoro-N4-(4-cyanomethyleneoxyphenyl)-2,4-pyrimidinediamine]	0.0489 µM	0.093 µM	
CCS(=O)(=O)NCc1ccc(Nc2nc(Nc3ccc(CS(=O)(=O)NC)cc3)ncc2C)cc1 [Compound I-2, N4-(4-ethylsulfonylaminomethyl)phenyl-5-methyl-N2-(4-methylaminosulfonylmethyl)phenyl-2,4-pyrimidinediamine]	0.0703 µM	0.0796 µM	
CNS(=O)(=O)Cc1ccc(Nc2ncc(F)c(Nc3ccc(CNS(=O)(=O)C4CC4)cc3)n2)cc1 [Compound I-8, N4-(4-cyclopropylsulfonylaminomethyl)phenyl-5-fluoro-N2-(4-methylaminosulfonylmethyl)phenyl-2,4-pyrimidinediamine]	0.147 µM	0.229 µM	
CCS(=O)(=O)NCc1ccc(Nc2nc(Nc3ccc(CS(=O)(=O)NC)cc3)ncc2F)cc1 [Compound I-10, N4-(4-ethylsulfonylaminomethyl)phenyl-5-fluoro-N2-(4-methylaminosulfonylmethyl)phenyl-2,4-pyrimidinediamine]	0.285 µM	0.423 µM	
Cc1cnc(Nc2ccc(CNS(=O)(=O)C3CC3)cc2)nc1Nc1ccc(CNS(=O)(=O)C2CC2)cc1 [II-1, N2,N4-bis(4-cyclopropylsulfonylaminomethyl)phenyl-5-methyl-2,4-pyrimidinediamine]	0.0452 µM	0.026 µM	
Cc1cnc(Nc2ccc(CCNS(=O)(=O)C3CC3)cc2)nc1Nc1ccc(CCNS(=O)(=O)C2CC2)cc1 [II-2, N2,N4-bis[4-(2-cyclopropylsulfonylamino)ethyl]phenyl-5-methyl-2,4-pyrimidine diamine]	0.202 µM	0.317 µM	
COc1cc(Nc2nc(Nc3ccc4c(c3)CN(S(N)(=O)=O)CC4)ncc2F)ccc1Cl [III-1, N2-(2-Aminosulfonyl-1,2,3,4-tetrahydroisoquinolin-7-yl)-N4-(4-chloro-3-methoxyphenyl)-5-fluoro-2,4-pyrimidinediamine]			IC50 [1, 2]: 0.129 µM; IC50 (Primary human T-cells; [3]): 0.279 µM
NS(=O)(=O)N1CCc2ccc(Nc3ncc(F)c(Nc4ccc(CNS(=O)(=O)C5CC5)cc4)n3)cc2C1 [III-2, N2-(2-Aminosulfonyl-1,2,3,4-tetrahydroisoquinolin-7-yl)-N4-[4-(cyclopropylsulfonylaminomethyl)phenyl]-5-fluoro-2,4-pyrimidinediamine]			IC50 [1, 2]: 0.0274 µM; IC50 (Primary human T-cells; [3]): 0.0166 µM
C#CCOc1ccc(Nc2nc(Nc3ccc4c(c3)CN(S(N)(=O)=O)CC4)ncc2F)cc1 [III-4, N2-(2-Aminosulfonyl-1,2,3,4-tetrahydroisoquinolin-7-yl)-N4-(4-(prop-2-ynyloxy)phenyl)-5-fluoro-2,4-pyrimidinediamine]			IC50 ([1]; Homo sapiens, Ramos): 0.101 µM; IC50 (Primary human T-cells; Homo sapiens, T-cell, 72 h): 0.129 µM
CC1(C)Oc2cc(Nc3nc(Nc4cccc(CS(N)(=O)=O)c4)ncc3F)cnc2NC1=O [IV-1, N2-[3-(Aminosulfonylmethylene)phenyl]-N4-[2,2-dimethyl-3-oxo-4H-pyrid[1,4]oxazin-7-yl]-5-fluoro-2,4-pyrimidinediamine]	0.133 µM	0.482 µM	
CN1C(=O)C(C)(C)Oc2cc(Nc3nc(Nc4cccc(CS(N)(=O)=O)c4)ncc3F)cnc21 [IV-2, N2-[3-(Aminosulfonylmethylene)phenyl]-N4-[2,2-dimethyl-3-oxo-4-methyl-pyrid[1,4]oxazin-7-yl]-5-fluoro-2,4-pyrimidinediamine]	0.17 µM	0.881 µM	
